Read-outs that look alike come from different tables or passages of the source.
Columns and labels:
CYP2D6 and UGT1A8 = target: T1, CYP2D6 and UGT1A8 (Homo sapiens, UniProt P10635); assay: Resting yeast cells with UDPGDH, human UGT and human P450; assay type: cell-based; settings: human P450 2D6 and human UGT1A8; 1 mM 7-ethoxycoumarine
T1 construct: expressed in transfected cells; host or cells: Saccharomyces cerevisiae
Experimental: To achieve the sequential production of hydroxyl intermediate and glucuronidation, co-expression yeast system containing UDPGDH, UGT, and P450 was constructed using combination of expression vectors (pAUR-ratUDPGDH/UGT1A6 and pPYR/humanCYP).
Each phase was analyzed by UPLC system (FIG. 15 and Table 7).
FIG. 15 indicated reverse phase HPLC elution pattern of metabolites from 7-ethoxycoumarine using resting yeast cells containing UDPGDH, human UGT1A8, and human P450 2D6. […] Each hydroxyl intermediates further were metabolized to corresponding glucuronides by human UGT1A8.

ratCYP1A1 and UGT1A6 = target: T2, ratCYP1A1 and UGT1A6 (UniProt P00185+P19224); assay: Resting yeast cells co-expressing UDPGDH, UGT1A6 and rat CYP1A1; assay type: cell-based; settings: 1 mM 7-ethoxycoumarine, 8% glucose, 30° C., 72 hrs
T2 construct: expressed in transfected cells; host or cells: Saccharomyces cerevisiae AH22
T2 sequence (P00185 2-524): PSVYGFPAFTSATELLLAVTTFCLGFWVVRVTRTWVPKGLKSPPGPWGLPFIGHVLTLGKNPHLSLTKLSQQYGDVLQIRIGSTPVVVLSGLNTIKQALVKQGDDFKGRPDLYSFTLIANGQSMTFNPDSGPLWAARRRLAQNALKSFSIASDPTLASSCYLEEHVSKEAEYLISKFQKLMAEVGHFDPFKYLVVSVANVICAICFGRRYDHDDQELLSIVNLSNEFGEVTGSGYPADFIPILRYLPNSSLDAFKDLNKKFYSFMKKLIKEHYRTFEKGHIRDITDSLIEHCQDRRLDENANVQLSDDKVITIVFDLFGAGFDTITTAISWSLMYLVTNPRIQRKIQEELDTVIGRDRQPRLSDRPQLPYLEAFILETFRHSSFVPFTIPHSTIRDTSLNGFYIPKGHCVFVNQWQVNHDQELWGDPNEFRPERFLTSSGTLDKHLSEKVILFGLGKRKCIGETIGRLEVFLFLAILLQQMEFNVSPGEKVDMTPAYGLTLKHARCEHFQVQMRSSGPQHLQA
T2 sequence (P19224 27-532): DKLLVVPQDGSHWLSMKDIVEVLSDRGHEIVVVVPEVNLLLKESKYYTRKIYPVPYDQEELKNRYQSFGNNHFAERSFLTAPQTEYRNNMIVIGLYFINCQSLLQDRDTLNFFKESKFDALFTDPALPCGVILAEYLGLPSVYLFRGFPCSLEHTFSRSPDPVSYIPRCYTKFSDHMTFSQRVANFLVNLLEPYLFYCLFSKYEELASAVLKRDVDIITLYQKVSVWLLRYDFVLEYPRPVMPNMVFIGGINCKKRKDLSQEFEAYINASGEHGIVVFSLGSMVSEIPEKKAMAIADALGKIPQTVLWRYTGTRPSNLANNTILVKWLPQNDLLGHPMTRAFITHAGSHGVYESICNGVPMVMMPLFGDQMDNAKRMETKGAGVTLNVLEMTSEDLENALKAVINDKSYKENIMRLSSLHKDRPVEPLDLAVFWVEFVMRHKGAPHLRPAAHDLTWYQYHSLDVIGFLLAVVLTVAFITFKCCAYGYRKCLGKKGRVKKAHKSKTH
Excerpt: In the precursor of most glucuronide, hydroxyl groups are introduced by P450-dependent monooxynenation. To analyze the structure and function of these xenobiotic metabolizing enzymes the expression system of several mammalian P450 and UGT isoforms was constructed in budding yeast cells, Saccharomyces cerevisiae AH22. This in vitro system is able to convert 7-ethoxycoumarine to its glucuronide via hydroxyl intermediate, 7-hydroxycoumarine (Ref 6). Yeast cells lack the ability of production of UDP-glucuronic acid (UDP-GlcUA) from UDP-glucose to synthesize the glucuronide in whole cells. To achieve the sequential production of hydroxyl intermediate and glucuronidation, co-expression yeast system containing UDPGDH, UGT, and P450 was constructed using combination of expression vectors (pAUR-At.UDPGDH/UGT1A6 and pGYR/ratCYP1A1, No. 5 in Table 2). […] Each phase was analyzed by UPLC system (FIG. 13).

UGT1A6 [1] = target: T3, UGT1A6 (Homo sapiens, UniProt P19224); assay: Glucuronide production in resting S. cerevisiae AH22 cells co-expressing UDPGDH and UGT1A6; assay type: cell-based; set-up: expressed in transfected cells; host or cells: Saccharomyces cerevisiae AH22; settings: UGT1A6
T3 sequence (P19224 27-532): T2 sequence (P19224 27-532)
Experimental: Each phase was analyzed by UPLC system.
Time course of conversion in the transformant with the highest activity of glucuronidation (AH22: pAUR/At.UDPGDH+pGYR/hUGT1A6) was examined (FIG. 6).
Glucose concentration dependence of conversion in the transformant with the highest activity of glucuronidation (AH22: pAUR/At.UDPGDH+pGYR/hUGT1A6) was examined (FIG. 7).

UGT1A1 = target: T4, UGT1A1 (Homo sapiens, UniProt P22309); settings: fission yeast, Dragan et al.; cited from earlier work
T4 construct: host or cells: Schizosaccharomyces pombe
T4 sequence (P22309 26-533): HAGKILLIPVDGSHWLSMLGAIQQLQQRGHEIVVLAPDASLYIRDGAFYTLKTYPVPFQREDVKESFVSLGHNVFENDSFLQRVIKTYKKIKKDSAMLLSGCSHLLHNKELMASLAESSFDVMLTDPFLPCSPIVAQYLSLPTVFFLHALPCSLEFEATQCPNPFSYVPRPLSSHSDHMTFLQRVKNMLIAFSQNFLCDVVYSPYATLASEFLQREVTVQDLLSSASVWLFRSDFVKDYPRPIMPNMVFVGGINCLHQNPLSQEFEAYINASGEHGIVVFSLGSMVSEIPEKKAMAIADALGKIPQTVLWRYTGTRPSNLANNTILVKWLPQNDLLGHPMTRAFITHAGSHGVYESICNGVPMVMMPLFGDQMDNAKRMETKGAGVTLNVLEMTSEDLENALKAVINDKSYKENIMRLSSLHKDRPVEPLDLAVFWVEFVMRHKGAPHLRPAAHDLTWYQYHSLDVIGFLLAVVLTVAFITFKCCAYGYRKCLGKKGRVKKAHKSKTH

hUGT1A1 = target: T5, hUGT1A1 (Homo sapiens, UniProt P22309); assay: Glucuronide production in resting S. cerevisiae AH22 cells co-expressing UDPGDH and UGT1A1; settings: UGT1A1
T5 sequence (P22309 28-533): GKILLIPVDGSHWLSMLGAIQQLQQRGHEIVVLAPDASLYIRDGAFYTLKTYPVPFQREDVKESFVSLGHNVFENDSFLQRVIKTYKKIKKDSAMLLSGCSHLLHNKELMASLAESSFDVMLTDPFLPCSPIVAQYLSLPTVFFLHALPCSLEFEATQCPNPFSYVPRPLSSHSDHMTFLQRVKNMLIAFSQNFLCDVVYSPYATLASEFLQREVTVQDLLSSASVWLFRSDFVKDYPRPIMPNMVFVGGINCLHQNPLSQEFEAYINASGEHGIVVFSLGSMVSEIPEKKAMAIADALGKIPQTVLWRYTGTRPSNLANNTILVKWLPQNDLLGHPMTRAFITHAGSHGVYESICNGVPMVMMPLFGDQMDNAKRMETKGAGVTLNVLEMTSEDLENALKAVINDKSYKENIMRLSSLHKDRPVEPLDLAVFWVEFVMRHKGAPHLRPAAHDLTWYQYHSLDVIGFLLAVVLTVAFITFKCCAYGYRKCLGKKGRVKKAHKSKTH
Experimental: To confirm the production of 7-hydroxycoumarine glucuronide in the resting yeast cells containing UDPGDH and UGT, transformants were cultivated in selection medium at 30° C., 48 hrs, and the resultant yeast cells were suspended with appropriate buffer solution containing 0.1-1 mM 7-hydroxycoumarine and 1-8% (w/v) glucose. After incubation at 30° C., 24 hrs, 2-fold volume of chloroform:methanol (3:1, v/v) was added to reaction medium containing yeast cells. Centrifugation of extracts was separated to upper water and lower organic phase. Lower organic phase were evaporated and redissolved in 200 μl acetonitrile. Each phase was analyzed by UPLC system. Condition of analysis are described below; column: Cosmosil 2.5C18-MS-II (2.0 mm×100 mm, nacalai tesque), flow rate 0.5 ml/min, detection 320 nm, temperature 45° C. Condition of gradient elution: water-acetonitrile with 0.5% (v/v) trifluoroacetic acid, 10% (v/v) acetonitrile (4 min), 10-70% acetonitrile (6 min), 70-10% acetonitrile (2 min), 10% acetonitrile (4 min).
To confirm the production of quercetin glucuronide in the resting yeast cells containing UDPGDH and UGT (pAUR/At.UDPGDH+pGYR/hUGT1A1), transformants were cultivated in selection medium at 30° C., 48 hrs, and the resultant yeast cells were suspended with 0.1 M potassium phosphate buffer (pH 7.4) containing 0.2 mM quercetin and 8% (w/v) glucose. After incubation at 30° C., 24 hrs, 2-fold volume of chloroform:methanol (3:1, v/v) was added to reaction medium containing yeast cells. Centrifugation of extracts was separated to upper water and lower organic phase. Lower organic phase were evaporated and redissolved in 200 μl acetonitrile. Quercetin glucuronides in yeast cells was isolated and detected by WAKOPAK™ Navi C30-5 (3 mm×150 mm, Wako Chemical)-column-HPLC system with followed condition; flow rate; 0.4 ml/min, detection; 370 nm, temperature 37° C. Condition of gradient elution: water-acetonitrile with 0.5% (v/v) phosphoric acid, 18% (v/v) acetonitrile (10 min), 18-55% acetonitrile (10 min), 55% acetonitrile (5 min).
To compare the production ability of glucuronide in budding (Saccharomyces cerevisiae) and fission yeast (Schizosaccharomyces pombe) containing UDPGDH and UGT, several transformants (No. 4 in Table 2 and transformant with N-terminal modified UGT1A1) were selected for the assay. These transformants were cultivated in selection medium at 30° C., 48 hrs, and the resultant yeast cells were suspended with appropriate buffer solution containing 0.5 mM 4-methylumberrferone and 8% (w/v) glucose. After incubation at 30° C., 24 hrs, 2-fold volume of chloroform:methanol (3:1, v/v) was added to reaction medium containing yeast cells. Centrifugation of extracts was separated to upper water and lower organic phase. Lower organic phase were evaporated and redissolved in 200 μl acetonitrile. Each phase was analyzed by UPLC system.
Condition of analysis are described below; column: COSMOSIL™ 2.5C18-MS-II (2.0 mm×100 mm, Nacalai Tesque), flow rate 0.5 ml/min, detection 320 nm, temperature 45° C. Condition of gradient elution: water-acetonitrile with 0.1% (v/v) trifluoroacetic acid, 10% acetonitrile (4 min), 10-70% acetonitrile (6 min), 70-10% acetonitrile (2 min), 10% acetonitrile (3 min).

UGT1A6 [2] = target: T3, UGT1A6; set-up: host or cells: Schizosaccharomyces pombe; settings: fission yeast, Dragan et al.; cited from earlier work
[3] = budding yeast, 0.5 mM 4-methylumberrferone, 8% (w/v) glucose, 30° C., 24 hrs

T1 sequence (P10635 whole entry): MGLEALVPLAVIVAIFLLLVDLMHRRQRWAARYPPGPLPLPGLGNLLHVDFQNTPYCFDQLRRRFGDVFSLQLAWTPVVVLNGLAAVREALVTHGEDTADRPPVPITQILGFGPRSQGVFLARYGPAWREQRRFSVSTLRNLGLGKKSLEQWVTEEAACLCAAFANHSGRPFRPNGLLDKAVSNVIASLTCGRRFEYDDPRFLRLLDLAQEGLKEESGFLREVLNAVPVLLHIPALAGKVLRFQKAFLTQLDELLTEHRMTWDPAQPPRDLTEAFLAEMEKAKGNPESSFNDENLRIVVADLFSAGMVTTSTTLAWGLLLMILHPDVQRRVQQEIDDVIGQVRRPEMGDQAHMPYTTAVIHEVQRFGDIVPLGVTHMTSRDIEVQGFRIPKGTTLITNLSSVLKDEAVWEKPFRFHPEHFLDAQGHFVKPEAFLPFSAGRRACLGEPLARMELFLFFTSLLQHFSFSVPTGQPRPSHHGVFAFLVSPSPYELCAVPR

| production ratio of glucuronide, budding yeast higher than fission yeast (UGT1A6 [1]) | production of glucuronide (UGT1A6 [1]; [3]) [µM/day] | production ratio of glucuronide, budding yeast higher than fission yeast (hUGT1A1) | production of glucuronide per biomass dry weight (hUGT1A1; budding yeast) [µmol/day/g dry weight] | production of glucuronide (hUGT1A1; [3]) [µM/day] | SMILES | metabolites formed (FIG. 15) (CYP2D6 and UGT1A8) | sequential P450-UGT metabolism (FIG. 13) (ratCYP1A1 and UGT1A6) | production of glucuronide (UGT1A1) [µM/day] | production of glucuronide per biomass dry weight (UGT1A1) [µmol/day/g dry weight] | production of glucuronide (UGT1A6 [2]) [µM/day] |
| --- | --- | --- | --- | --- | --- | --- | --- | --- | --- | --- |
|  |  |  |  |  | CCOc1ccc2ccc(=O)oc2c1 [7-ethoxycoumarine] | metabolized to 7-hydroxycoumarine or 3-hydroxy-7-ethoxycoumarine by human P450 2D6 | deethylated by P4501A1 and the resultant 7-hydroxycoumarine (●) was glucuronidated by UGT1A6 to its glucuronide |  |  |  |
| 50 | 195.7 | 10 | 2.6 | 20.2 | Cc1cc(=O)oc2cc(O[C@@H]3O[C@H](C(=O)O)[C@@H](O)[C@H](O)[C@H]3O)ccc12.O [4-metylumberrferone glucuronide, 4-methylumberrferone glucuronide] |  |  | 1.8 | 0.14 | 3.5 |
